Measurements taken from patent US8173133B2, “Acyl pseudodipeptides which carry a functionalized auxiliary arm” (OM Pharma, priority 1999, dated 2012).
In brackets after ≈: the same amount, converted by molar mass.

Columns and labels:
bone marrow stem cells = assay: bone marrow stem cell proliferation (XTT); format: cell-based, C57/BL6 mice; details: for Max amplitude: 7 days, XTT 492 nm; for Min amplitude: blank ± 3× standard deviation; for Max concentration: concentration at maximum amplitude; for EC50 conc: concentration corresponding to 50% of maximum amplitude; for Min concentration: lowest concentration inducing a significant proliferation
Excerpt: 6-week old male C57/BL6 mice are killed by CO2 inhalation. The hip, femur, tibia and hind leg bones are removed. The marrow is extracted from the bone lumen by injecting Dulbecco's Modified Eagle Medium (DH medium) from the end portions which had been excised. The stem cells are washed and suspended again in DH medium supplemented with 20% foetal calf serum (FCS) The cell concentration is adjusted to 500000 cells/ml.
Products previously dissolved in DH medium supplemented with 20% FCS, amino acids and antibiotics are serially diluted directly into a microtiter plate. The products are tested in triplicate and each microtiter plate includes a negative control containing plain medium. The final volume in each well is 100 μl.
100 μl of the cell suspension are added to diluted solutions of products and the cells are incubated for 7 days in an incubator at 37° C., under 8% CO2 and a moisture saturated atmosphere. Cell proliferation is determined by measuring the […] of a chromogenic substrate XTT (2,3-bis[2-methoxy-4-nitro-5-sulphophenyl]-2H-tetrazolium-5-carboxanilide) in mitochondria of viable cells.
At the end of the incubation period, 50 μl of the XTT substrate solution (1 mg/ml XTT+0.008 mg/ml phenazine methosulfate) are added to each well. After an 8 hour incubation period at 37° C. under 8% CO2 in a moisture saturated incubator, the microtiter plates are read with a spectrophotometer at 492 nm against a reference sample at 690 nm.
Results are expressed as mean value±standard deviation and plotted as a dose versus response curve. Values for a negative control composed of DH medium (mean±standard deviation) are also graphically shown.
From this dose versus response curve, 3 curve variables are computed:
Max: maximum curve amplitude and corresponding concentration
EC50: concentration corresponding to 50% of maximum amplitude
Min: lowest concentration inducing a significant proliferation corresponding to the blank±3× standard deviation value
Concentration values corresponding to EC50 and Min are determined from line segments joining different points on the curve.
If the curve has no plateau phase but an ascending configuration for the highest concentration being tested, a “>” sign is shown before Max and EC50 values.

[1] = system: predendritic cells (DC-6); assay: dendritic cell differentiation test: FITC-Dextran take-up; format: cell-based, human; details: for Dextran % CD / Dextran Fluorescence: 10 μg/ml; for Dextran % CD: products redissolved in pyrogen-free water, % of dendritic cells; for Dextran Fluorescence: mean fluorescence value; for concentration inducing differentiation of DC-6 cells into DC-9 cells: summary of phagocytosis and marker data
Procedure: (§1) The ability of products of the invention to induce maturation of predendritic cells into dendritic cells was assessed. The following parameters were measured: FITC-Dextran conjugate take-up and expression of CD83, CD86 surface markers.
(§2) Mononucleated cells of peripheral blood are isolated from buffy coats of healthy donors. Purified monocytes by adherence selection are resuspended in RPMI-1640 medium containing 10% of foetal calf serum (FCS), GM-CSF and IL-4 (10 ng/ml) at a density of 1×10^6 cells/ml. Cells are divided into Petri Dishes (10×10^6 cells per dish) and cultured for 6 days with a change to fresh medium after 3 days. Cells thus obtained are called predendritic cells (DC-6). Maturation of predendritic cells into mature dendritic cells is achieved by incubating cells with diluted solutions of the products or LPS (positive control) for 3 more days (see product section below). At day 9 (DC-9), cells are harvested and analyzed for different indicators of dendritic cell maturation: assessment of CD83, CD86 surface marker expression as well as of their ability to take up FITC-Dextran conjugate. All these parameters are analyzed by an EPICS-XL-MCL model FACS (Coulter Immunology, Hialeah, […]).
(§3) Expression of surface markers is given as % of mean fluorescence of LPS-activated cells (positive control); FITC-Dextran conjugate take-up rate is calculated based on take-up of cells maintained in basic medium and is expressed in %.
(§4) Solutions are incubated at 37° C. for 20 minutes, subjected to vigorous stirring during 3 minutes and then diluted to 100 μg/ml in RPMI-1640 culture medium and used in diluted state at concentrations ranging from 10 μg/ml to 0.03 μg/ml. Reference Product: E. coli lipopolysaccharide (LPS, DIFCO, Detroit, Mich., U.S.A.), as a 5 mg/ml stock solution in PBS. An intermediate 100 μg/ml solution is prepared in RPMI 1640 culture medium. Concentrations of dilute solutions being tested range from 1 μg/ml to 0.03 μg/ml.
(§5) In another series of experiments, all acyl dipeptide-like compounds were freeze-dried and directly redissolved into pyrogen-free water. Different products as well as LPS control are tested at a concentration of 10 μg/ml. Results are given as % of dendritic cells and mean fluorescence value for dextran phagocytosis or CD86 surface marker expression.
Immature dendritic cells (DC-6) resulting from monocyte differentiation, through the joint action of GM-CSF and IL-4, are able to incorporate FITC-Dextran conjugate. During the maturation process, cells lose their ability to incorporate the FITC-Dextran conjugate. Assays are conducted upon reaching the DC-9 differentiation stage.

[2] = system: CD83, CD86 surface markers of predendritic cells (DC-6); assay: dendritic cell differentiation test: CD83, CD86 surface marker expression; format: cell-based, human; details: for CD86 % CD / CD86 Fluorescence: 10 μg/ml; for CD86 % CD: products redissolved in pyrogen-free water, % of dendritic cells; for CD86 Fluorescence: mean fluorescence value; for concentration inducing an increase in expression of CD83 and CD86 surface markers: FIGS. 75 & 76
Procedure: as §1, §2, §3, §4, §5

[3] = system: human peripheral blood mononuclear cells; assay: α TNF production by human peripheral blood mononuclear cells; format: cell-based; details: 18 hours
Procedure: Mononuclear cells of peripheral blood are recovered from buffy coats of 6 healthy donors. Such buffy coat cells are resuspended and mononuclear cells are isolated by centrifugation on a Ficoll-Paque gradient (Amersham Pharmacia). Purified mononuclear cells are resuspended into RPMI-1640 medium supplemented with 10% FCS, antibiotics, mercaptoethanol and L-glutamine. Cell concentration is adjusted to 2×10^6 viable cells/ml
100 μl of each one of these solutions of acyl dipeptide-like compounds bearing an accessory functional side chain spacer, diluted 100-, 10- or 1-fold in RPMI medium 1640, are dispensed into a microtiter plate. Samples are tested in triplicates, and each microtiter plate includes a negative control made up of plain medium. Dilutions of E. coli LPS (ranging grom 1 to 0.00001 μg/ml) are used as a positive control.
100 μl of the cell suspension are added to each well containing product dilute solutions or control. Cells are incubated with the products for 18 hours in an incubator at 37° C., under 5% CO2 and a moisture saturated atmosphere.
At the end of the incubation period, microtiter plates are centrifuged, and the supernatant fluids are pooled and frozen at −80° C. as aliquots until time of ELISA assay.
Concentration of α TNF secreted by mononuclear cells is determined by chemiluminescent ELISA (QuantiGlo #QTAOO R&D kit). 4-fold supernatant fluid dilutions are dispensed into each well of the microtiter plate to which anti-αTNF antibodies are bound. The microtiter plate is incubated for 4 hours at room temperature. After washing, peroxidase-conjugated anti-human a TNF antibody is added. Following a 2 hour incubation period and thorough washing, a chemiluminescent substrate is added and chemilunescence is read after 20 minutes. α TNF content in the supernatant fluid is determined with respect to a standard curve covering the 7000 to 0.7 pg/ml range.
Results are expressed in pg/ml of α TNF produced. Results derive from an experiment representative of acyl-dipeptide-like compound activity

Row | Compound | Max amplitude (bone marrow stem cells) | Min amplitude (bone marrow stem cells) | Max concentration (bone marrow stem cells) | EC50 conc (bone marrow stem cells) | Min concentration (bone marrow stem cells) | Dextran % CD [1] | Dextran Fluorescence [1] | phagocytic capacity retained (% incorporation of FITC-Dextran of unchallenged cells) ([1]; DC-9 stage, FIG. 74) | concentration required to induce full decrease of Dextran take-up ([1]; FIG. 74) | concentration inducing differentiation of DC-6 cells into DC-9 cells [1] | CD86 % CD [2] | CD86 Fluorescence [2] | concentration inducing an increase in expression of CD83 and CD86 surface markers [2] | α TNF produced ([3]; product 1 μg/ml) | α TNF produced ([3]; product 10 μg/ml) | α TNF produced ([3]; product 100 μg/ml) | effect on maturation of dendritic cells ([1]; 0.03 to 10 μg/ml)
1 | CCCCCCCCCCCC(=O)O[C@H](CCCCCCCCCCC)CC(=O)NC(CCOP(=O)(O)O)C(=O)NCCC[C@H](COC(=O)CCCCCN)NC(=O)C[C@H](O)CCCCCCCCCCC (mixture of isomers) [OM-197-MP-AC (R/S, R), (3RS,9R)-3-[(R)-3-dodecanoyloxytetradecanoylamino]-4oxo-5-aza-9-[(R)-3-hydroxytetradecanoylamino]-decan-10-ol 1-dihydrogen-phosphate(6-aminohexanoate)] | 2.12 O.D | 0.80 O.D | 25 µg/mL | 3.1 µg/mL (≈ 2.96 µM) | 0.71 µg/mL | 84.6% | 6.3 | 22% | at least 1 μg/ml | 0.1 µg/mL | 80.0% | 6.0 | 0.1 µg/mL | 244 pg/mL | 156 pg/mL | 160 pg/mL | 
2 | CCCCCCCCCCCC(=O)O[C@H](CCCCCCCCCCC)CC(=O)N[C@H](CC(=O)NCCCN)C(=O)NCCC[C@H](CO)NC(=O)C[C@H](O)CCCCCCCCCCC [OM-197-AP, N—[(R)-3-dodecanoyloxytetradecanoyl]-D-aspartic acid, α-N-{(4R)-5-hydroxy-4-[(R)-3-hydroxy-tetradecanoylamino]pentyl}-amide β-N-(3-aminopropyl)amide] | 1.49 O.D | 0.80 O.D | 25 µg/mL | 2.2 µg/mL (≈ 2.38 µM) | 0.41 µg/mL | 56.1% | 4.4 |  |  |  | 62.0% | 4.8 |  | 428 pg/mL | 116 pg/mL | 84 pg/mL | 
3 | CCCCCCCCCCCC(=O)O[C@H](CCCCCCCCCCC)CC(=O)N[C@H](CC(=O)N[C@@H](CC(=O)O)C(=O)O)C(=O)NCCC[C@H](CO)NC(=O)C[C@H](O)CCCCCCCCCCC [OM-197-Asp, N—[(R)-3-dodecanoyloxytetradecanoyl]-D-aspartic acid, α-N-{(4R)-5-hydroxy-4-[(R)-3-hydroxytetradecanoylamino]-pentyl}Amide β-N-[(1S)-1,2-Dicarboxyethyl]Amide] | 1.22 O.D | 0.80 O.D | 25 µg/mL | 5.0 µg/mL (≈ 5.08 µM) | 1.89 µg/mL | 26.4% | 2.4 |  |  |  | 29.0% | 2.6 |  | 0 pg/mL | 28 pg/mL | 80 pg/mL | 
4 | CCCCCCCCCCCC(=O)O[C@H](CCCCCCCCCCC)CC(=O)N[C@H](CC(=O)N[C@@H](CC(=O)O)C(=O)O)C(=O)NCCC[C@H](COC(=O)CCCCCN)NC(=O)C[C@H](O)CCCCCCCCCCC [OM-197-Asp-AC, N—[(R)-3-dodecanoyloxytetradecanoyl]-D-aspartic acid, α-N-{(4R)-5-(6-aminohexanoyloxy)-4-[(R)-3-hydroxytetradecanoyl-amino]-pentyl}amide β-N-[(1S)-1,2-dicarboxyethyl]Amide] | 1.33 O.D | 0.80 O.D | 50 µg/mL | 2.8 µg/mL (≈ 2.55 µM) | 1.27 µg/mL | 22.0% | 22.1 |  |  |  | 26.7% | 2.4 |  | 20 pg/mL | 172 pg/mL | 132 pg/mL | 
5 | CCCCCCCCCCCC(=O)O[C@H](CCCCCCCCCCC)CC(=O)NC(CCOP(=O)(O)O)C(=O)NCCCC(COC(=O)CCCCC(O)CO)NC(=O)C[C@H](O)CCCCCCCCCCC (stereo partly drawn) [OM-197-FV6, 3-[(R)-dodecanoyloxytetradecanoylamino]-4oxo-5-aza-9-[(R)-3-hydroxytetradecanoylamino]-decan-1,10-diol 1-dihydrogenphate 10-(6,7-dihydroxyheptanoate)] | 1.52 O.D | 0.80 O.D | 50 µg/mL | 5.7 µg/mL (≈ 5.29 µM) | 1.60 µg/mL | 84.5% | 6.3 |  |  | totally lack such an activity | 62.9% | 4.9 | no effect at all | 0 pg/mL | 104 pg/mL | 88 pg/mL | apparently no effect
6 | CCCCCCCCCCCC(=O)O[C@H](CCCCCCCCCCC)CC(=O)N[C@H](CC(=O)N[C@@H](CCCCN)C(=O)O)C(=O)NCCC[C@H](COC(=O)CCCCCN)NC(=O)C[C@H](O)CCCCCCCCCCC [OM-197-Lys-AC] | > 2.02 O.D | 0.80 O.D | > 50 µg/mL | > 14.6 µg/mL | 0.90 µg/mL | 92.2% | 6.8 |  |  |  | 93.5% | 6.9 |  | 232 pg/mL | 184 pg/mL | 256 pg/mL | 
